In PubChem BioAssay (NCI):
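Cultured in 96-well plates, cells were exposed to test compound for 48 hours across five concentrations. TGI marks complete inhibition of growth.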

How the values were obtained:
Test in all cases: NCI tumour cell line growth inhibition, 48 h
[1] = system: A498 renal
[2] = system: A549 NSCLC
[3] = system: DU-145 prostate
[4] = system: HT29 colon
[5] = system: NCI-H522 lung
[6] = system: OVCAR-8 ovarian
[7] = system: SK-MEL-5 melanoma
[8] = system: SNB-75 CNS
[9] = system: SW-620 colon
[10] = system: TK-10 renal
[11] = system: U251 CNS

Row | Structure (SMILES) | TGI [1] [µM] | TGI [2] [µM] | TGI [3] [µM] | TGI [4] [µM] | TGI [5] [µM] | TGI [6] [µM] | TGI [7] [µM] | TGI [8] [µM] | TGI [9] [µM] | TGI [10] [µM] | TGI [11] [µM]
1 | CCN(CC)CCN1CCN=c2c3cc(OC)ccc3n3cnc4ccc1c2c43 | 1.82 | 2.78 | 4.39 | 1.81 | 3.86 | 2.26 | 3.27 | 2.27 | 1.82 | 4.93 | 2.74
2 | CCOP(=O)(CCC(O)CNc1nc(N)nc(Cl)c1N=Nc1ccc(Cl)cc1)OCC (stereo unspecified) | 27.7 | 33.8 | > 100 | 28.8 | 23 | > 100 | 25.7 | 49.3 | 42.7 | 54.1 | 51.2
3 | COc1ccc(-c2cc(=O)c3c(O)c(OC)c(O)cc3o2)cc1O | 65.8 | > 100 | > 100 | > 61.8 | 9.53 | > 100 | 14.9 | 60 | > 100 | > 100 | > 100
4 | COC(=O)C(Cc1ccccc1)C(=O)NC(CNC(=O)OCc1ccccc1)C(=O)OCc1ccccc1 (stereo unspecified) | > 81.4 | – | > 100 | > 61.2 | 72.3 | > 100 | 34 | 64.8 | > 100 | 98 | > 100
5 | O=C(/C=C/c1c(O)c2ccccc2[nH]c1=O)CC(=O)C(=O)Nc1cccc(O)c1 | > 100 | > 100 | > 100 | > 100 | > 100 | > 100 | > 100 | > 100 | > 100 | > 100 | > 100
6 | CN=C1Nc2ccccc2C(=S)N2CSC[C@@H]12 | > 100 | > 100 | > 100 | > 100 | > 100 | > 100 | > 100 | – | > 100 | > 100 | > 100
7 | CC(C)[Si](OCC/C=C/C1CCC(=O)C1C(O)C1CCCCC1)(C(C)C)C(C)C (stereo unspecified) | 33.9 | 28.7 | 32 | 26.2 | 25.3 | 28.8 | 29 | 30.1 | 31.3 | 32.7 | 30.9
8 | O=c1[nH]c2nccn2c(Cl)c1Br | > 100 | > 100 | > 100 | 48.8 | 29.8 | 39.3 | 64.9 | 77.8 | 60.1 | > 100 | 34.4
9 | CNC(=O)C(C)NC(=O)C(Cc1ccccc1)NC(=O)OC(C)(C)C (stereo unspecified) | > 100 | > 100 | > 100 | > 100 | > 100 | > 100 | > 100 | > 100 | > 100 | > 100 | > 100
10 | C=CCN1C(=O)N/C(=C\c2ccc(Cl)cc2)C1=O | > 100 | > 100 | > 100 | > 100 | > 100 | > 100 | > 100 | > 100 | > 100 | > 100 | > 100
11 | CCC1=NC(N/N=C/c2ccccc2O)=N/C1=C\c1ccccc1O | 85.4 | > 100 | > 64.7 | 37.5 | 21 | > 69.2 | > 100 | > 100 | > 100 | > 54.6 | > 100
12 | COc1ccccc1NC(=S)Nc1cccc(C)n1 | > 100 | > 100 | > 100 | > 100 | 45.9 | > 100 | > 100 | 63.5 | > 100 | > 100 | > 100
13 | Nc1ccccc1C(=O)NNC(=O)c1ccccc1N | > 100 | > 100 | > 100 | > 100 | > 100 | > 100 | > 100 | > 100 | > 100 | > 100 | > 100
14 | c1ccc2c(OCC3CO3)ccc(OCC3CO3)c2c1 (stereo unspecified) | 33.9 | 16.9 | 5.47 | 17.5 | 22.5 | 10.4 | 19 | 28.4 | 4.03 | 26.7 | 6.32
15 | COc1ccc2c(c1)-c1c(c3ccccc3n1CCN1CCCCC1)CC2 | > 100 | > 88.9 | > 100 | 24.5 | 28.6 | > 55.3 | 30.1 | > 100 | 81.2 | 54.6 | 56.7
16 | CCCOc1ccc(/C=C/C2=[N+](CCO)CCO2)cc1 | > 100 | > 100 | > 100 | > 100 | > 100 | > 100 | > 100 | > 100 | > 100 | > 100 | > 100
17 | COc1c(C(CC(C)C)OC(C)=O)ccc2c1C(=O)OCc1cc(C)cc(O)c1O2 (stereo unspecified) | 34.7 | 25.8 | 25.8 | 32.2 | 26.2 | 33.1 | 23.2 | 42.1 | 31.5 | 31.8 | 28.1
18 | CCOC(=O)C1C(C(C)C)C2(C#N)C(=N)OC1(C)C2(C#N)C#N (stereo unspecified) | > 100 | > 100 | > 100 | > 100 | > 100 | > 100 | > 100 | 74.4 | > 100 | > 100 | > 100
